Laboratory results from patent US12522607B2, “Substituted pyrazolo[3,4-d]pyrimidines as wee-1 inhibitors” (WIGEN BIOMEDICINE TECHNOLOGY (SHANGHAI) CO., LTD., priority 2020, dated 2026).

Key:
Wee-1 kinase = target: T1, Wee-1 kinase (Homo sapiens, UniProt P30291); test: Inhibitory activity against Wee-1 kinase (Lanthra Screen Wee-1 kinase kit, Tracer 178); format: binding; conditions: Wee-1 kinase 5 nM, Tracer 178 50 nM, 1 h room temperature
T1 construct: purchased Invitrogen
Summary of the method: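 LanthaScreen binding format: Wee-1 kinase (5 nM final) with Eu-anti-GST antibody (2 nM final) and kinase Tracer 178 (50 nM final), compounds serially diluted in DMSO. 1 h at room temperature before reading. IC50 relative to DMSO control.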

HT29 cells = test: Antiproliferative activity against HT29 cells (Cell Titer-Lumi, ATP content); format: cell-based; conditions: Homo sapiens, HT-29, 72 after compound addition, read-out: HT-29 cells Anti-proliferative activity (IC50 for the inhibition against HT-29 cell growth)
Summary of the method: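 3000 cells per well, allowed to adhere overnight, then exposed to a gradient dilution of compound for 72 (units as printed). Cellular ATP read by luminescence (Cell Titer-Lumi) as a growth measure; IC50 for growth inhibition calculated.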

T1 sequence (P30291 whole entry): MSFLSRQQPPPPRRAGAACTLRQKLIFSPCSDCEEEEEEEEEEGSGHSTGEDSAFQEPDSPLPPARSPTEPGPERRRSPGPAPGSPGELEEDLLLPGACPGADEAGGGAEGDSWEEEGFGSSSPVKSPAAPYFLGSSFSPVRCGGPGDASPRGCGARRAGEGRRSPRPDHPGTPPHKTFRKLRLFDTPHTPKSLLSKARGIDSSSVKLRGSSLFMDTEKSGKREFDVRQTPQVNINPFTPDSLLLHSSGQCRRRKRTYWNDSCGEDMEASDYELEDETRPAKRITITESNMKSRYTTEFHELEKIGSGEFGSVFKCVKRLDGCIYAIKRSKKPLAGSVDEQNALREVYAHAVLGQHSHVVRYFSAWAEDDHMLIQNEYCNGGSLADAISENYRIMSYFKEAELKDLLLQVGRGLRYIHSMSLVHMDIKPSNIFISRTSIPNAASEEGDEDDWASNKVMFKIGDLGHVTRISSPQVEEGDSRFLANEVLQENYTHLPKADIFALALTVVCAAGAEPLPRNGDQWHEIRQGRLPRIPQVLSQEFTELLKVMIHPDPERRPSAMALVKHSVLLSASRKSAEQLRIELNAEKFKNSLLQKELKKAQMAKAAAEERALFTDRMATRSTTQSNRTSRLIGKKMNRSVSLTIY

SMILES | IC50 (Wee-1 kinase) [nM] | IC50 (HT29 cells) [nM]
C=CCn1c(=O)c2cnc(Nc3ccc4c(C5CCN(C)CC5)c[nH]c4c3)nc2n1-c1ccc(=O)n(C(C)C)n1 [Compound 267] | ≤ 30 | ≤ 1000
C=CCn1c(=O)c2cnc(Nc3ccc4c(C5CCN(C(C)C)CC5)cn(C)c4c3)nc2n1-c1ccc(=O)n(C(C)C)n1 [Compound 268] | ≤ 30 | ≤ 1000
C=CCn1c(=O)c2cnc(Nc3ccc4c(ccn4C4CCNCC4)c3)nc2n1-c1ccc(=O)n(C(C)C)n1 [Compound 269] | ≤ 30 | ≤ 1000
C=CCn1c(=O)c2cnc(Nc3ccc4c(ccn4C4CCN(C)CC4)c3)nc2n1-c1ccc(=O)n(C(C)C)n1 [Compound 270] | ≤ 30 | ≤ 1000
C=CCn1c(=O)c2cnc(Nc3ccc4c(ccn4C4CCN(C(C)C)CC4)c3)nc2n1-c1ccc(=O)n(C(C)C)n1 [Compound 271] | ≤ 30 | ≤ 1000
Cc1cc(Nc2ncc3c(=O)n(C4CC4)n(-c4ccc(=O)n(C(C)C)n4)c3n2)ccc1N1CCN(C)CC1 [Compound 272] | ≤ 30 | ≤ 1000
Cc1cc(Nc2ncc3c(=O)n(C4CC4)n(-c4ccc(=O)n(C(C)C)n4)c3n2)ccc1C1CCN(C)CC1 [Compound 273] | ≤ 30 | ≤ 1000
CC(C)n1nc(-n2c3nc(Nc4ccc5c(c4)CN(C)CC54CC4)ncc3c(=O)n2C2CC2)ccc1=O [Compound 274] | ≤ 30 | ≤ 1000
CCn1c(=O)c2cnc(Nc3ccc(N4CCN(C)CC4)c(C)c3)nc2n1-c1ccc(=O)n(C(C)C)n1 [Compound 275] | ≤ 30 | ≤ 1000
CCn1c(=O)c2cnc(Nc3ccc(C4CCN(C)CC4)c(C)c3)nc2n1-c1ccc(=O)n(C(C)C)n1 [Compound 276] | ≤ 30 | ≤ 1000
CCn1c(=O)c2cnc(Nc3ccc4c(c3)CN(C)CC43CC3)nc2n1-c1ccc(=O)n(C(C)C)n1 [Compound 277] | ≤ 30 | ≤ 1000
Cc1cc(Nc2ncc3c(=O)n(C(C)C)n(-c4ccc(=O)n(C(C)C)n4)c3n2)ccc1N1CCN(C)CC1 [Compound 278] | ≤ 30 | ≤ 1000
Cc1cc(Nc2ncc3c(=O)n(C(C)C)n(-c4ccc(=O)n(C(C)C)n4)c3n2)ccc1C1CCN(C)CC1 [Compound 279] | ≤ 30 | ≤ 1000
CC(C)n1nc(-n2c3nc(Nc4ccc5c(c4)CN(C)CC54CC4)ncc3c(=O)n2C(C)C)ccc1=O [Compound 280] | ≤ 30 | ≤ 1000
C=CCn1c(=O)c2cnc(Nc3ccc(N4CCN(C)CC4)c(C)c3)nc2n1-c1ccc(=O)n(C(C)(C)C)n1 [Compound 281] | ≤ 30 | ≤ 1000
C=CCn1c(=O)c2cnc(Nc3ccc(C4CCN(C)CC4)c(C)c3)nc2n1-c1ccc(=O)n(C(C)(C)C)n1 [Compound 282] | ≤ 30 | ≤ 1000
C=CCn1c(=O)c2cnc(Nc3ccc4c(c3)CN(C)CC43CC3)nc2n1-c1ccc(=O)n(C(C)(C)C)n1 [Compound 283] | ≤ 30 | ≤ 1000
CCn1c(=O)c2cnc(Nc3ccc(N4CCN(C)CC4)cc3)nc2n1-c1ccc(=O)n(C(C)(C)C)n1 [Compound 284] | ≤ 30 | ≤ 1000
CCn1c(=O)c2cnc(Nc3ccc(N4CCN(C)CC4)c(C)c3)nc2n1-c1ccc(=O)n(C(C)(C)C)n1 [Compound 285] | ≤ 30 | ≤ 1000
CCn1c(=O)c2cnc(Nc3ccc(C4CCN(C)CC4)c(C)c3)nc2n1-c1ccc(=O)n(C(C)(C)C)n1 [Compound 286] | ≤ 30 | ≤ 1000
CCn1c(=O)c2cnc(Nc3ccc4c(c3)CN(C)CC43CC3)nc2n1-c1ccc(=O)n(C(C)(C)C)n1 [Compound 287] | ≤ 30 | ≤ 1000
CC(C)n1c(=O)c2cnc(Nc3ccc(N4CCN(C)CC4)cc3)nc2n1-c1ccc(=O)n(C(C)(C)C)n1 [Compound 288] | ≤ 30 | ≤ 1000
Cc1cc(Nc2ncc3c(=O)n(C(C)C)n(-c4ccc(=O)n(C(C)(C)C)n4)c3n2)ccc1N1CCN(C)CC1 [Compound 289] | ≤ 30 | ≤ 1000
Cc1cc(Nc2ncc3c(=O)n(C(C)C)n(-c4ccc(=O)n(C(C)(C)C)n4)c3n2)ccc1C1CCN(C)CC1 [Compound 290] | ≤ 30 | ≤ 1000
CC(C)n1c(=O)c2cnc(Nc3ccc4c(c3)CN(C)CC43CC3)nc2n1-c1ccc(=O)n(C(C)(C)C)n1 [Compound 291] | ≤ 30 | ≤ 1000
CN1CCN(c2ccc(Nc3ncc4c(=O)n(C5CC5)n(-c5ccc(=O)n(C(C)(C)C)n5)c4n3)cc2)CC1 [Compound 292] | ≤ 30 | ≤ 1000
Cc1cc(Nc2ncc3c(=O)n(C4CC4)n(-c4ccc(=O)n(C(C)(C)C)n4)c3n2)ccc1N1CCN(C)CC1 [Compound 293] | ≤ 30 | ≤ 1000
Cc1cc(Nc2ncc3c(=O)n(C4CC4)n(-c4ccc(=O)n(C(C)(C)C)n4)c3n2)ccc1C1CCN(C)CC1 [Compound 294] | ≤ 30 | ≤ 1000

SMILES | IC50 (Wee-1 kinase) [nM] | IC50 (HT29 cells) [nM]
CN1Cc2cc(Nc3ncc4c(=O)n(C5CC5)n(-c5ccc(=O)n(C(C)(C)C)n5)c4n3)ccc2C2(CC2)C1 [Compound 295] | ≤ 30 | ≤ 1000
C=CCn1c(=O)c2cnc(Nc3ccc(N4CCN(C)CC4)c(C)c3)nc2n1-c1ccc(=O)n(C(C)C)c1 [Compound 296] | ≤ 30 | ≤ 1000
C=CCn1c(=O)c2cnc(Nc3ccc(C4CCN(C)CC4)c(C)c3)nc2n1-c1ccc(=O)n(C(C)C)c1 [Compound 297] | ≤ 30 | ≤ 1000
C=CCn1c(=O)c2cnc(Nc3ccc4c(c3)CN(C)CC43CC3)nc2n1-c1ccc(=O)n(C(C)C)c1 [Compound 298] | ≤ 30 | ≤ 1000
CCn1c(=O)c2cnc(Nc3ccc(N4CCN(C)CC4)cc3)nc2n1-c1ccc(=O)n(C(C)C)c1 [Compound 299] | ≤ 30 | ≤ 1000
CCn1c(=O)c2cnc(Nc3ccc(N4CCN(C)CC4)c(C)c3)nc2n1-c1ccc(=O)n(C(C)C)c1 [Compound 300] | ≤ 30 | ≤ 1000
CCn1c(=O)c2cnc(Nc3ccc(C4CCN(C)CC4)c(C)c3)nc2n1-c1ccc(=O)n(C(C)C)c1 [Compound 301] | ≤ 30 | ≤ 1000
CCn1c(=O)c2cnc(Nc3ccc4c(c3)CN(C)CC43CC3)nc2n1-c1ccc(=O)n(C(C)C)c1 [Compound 302] | ≤ 30 | ≤ 1000
CC(C)n1cc(-n2c3nc(Nc4ccc(N5CCN(C)CC5)cc4)ncc3c(=O)n2C(C)C)ccc1=O [Compound 303] | ≤ 30 | ≤ 1000
Cc1cc(Nc2ncc3c(=O)n(C(C)C)n(-c4ccc(=O)n(C(C)C)c4)c3n2)ccc1N1CCN(C)CC1 [Compound 304] | ≤ 30 | ≤ 1000
Cc1cc(Nc2ncc3c(=O)n(C(C)C)n(-c4ccc(=O)n(C(C)C)c4)c3n2)ccc1C1CCN(C)CC1 [Compound 305] | ≤ 30 | ≤ 1000
CC(C)n1cc(-n2c3nc(Nc4ccc5c(c4)CN(C)CC54CC4)ncc3c(=O)n2C(C)C)ccc1=O [Compound 306] | ≤ 30 | ≤ 1000
CC(C)n1cc(-n2c3nc(Nc4ccc(N5CCN(C)CC5)cc4)ncc3c(=O)n2C2CC2)ccc1=O [Compound 307] | ≤ 30 | ≤ 1000
Cc1cc(Nc2ncc3c(=O)n(C4CC4)n(-c4ccc(=O)n(C(C)C)c4)c3n2)ccc1N1CCN(C)CC1 [Compound 308] | ≤ 30 | ≤ 1000
Cc1cc(Nc2ncc3c(=O)n(C4CC4)n(-c4ccc(=O)n(C(C)C)c4)c3n2)ccc1C1CCN(C)CC1 [Compound 309] | ≤ 30 | ≤ 1000
CC(C)n1cc(-n2c3nc(Nc4ccc5c(c4)CN(C)CC54CC4)ncc3c(=O)n2C2CC2)ccc1=O [Compound 310] | ≤ 30 | ≤ 1000
C=CCn1c(=O)c2cnc(Nc3ccc(N4CCN(C)CC4)c(OC)c3)nc2n1-c1cc(F)c(=O)n(C(C)C)c1 [Compound 311] | ≤ 30 | ≤ 1000
C=CCn1c(=O)c2cnc(Nc3ccc(N4CCN(C)CC4)c(C)c3)nc2n1-c1cc(F)c(=O)n(C(C)C)c1 [Compound 312] | ≤ 30 | ≤ 1000
C=CCn1c(=O)c2cnc(Nc3ccc(C4CCN(C)CC4)c(C)c3)nc2n1-c1cc(F)c(=O)n(C(C)C)c1 [Compound 313] | ≤ 30 | ≤ 1000
C=CCn1c(=O)c2cnc(Nc3ccc4c(c3)CN(C)CC43CC3)nc2n1-c1cc(F)c(=O)n(C(C)C)c1 [Compound 314] | ≤ 30 | ≤ 1000
CCn1c(=O)c2cnc(Nc3ccc(N4CCN(C)CC4)cc3)nc2n1-c1cc(F)c(=O)n(C(C)C)c1 [Compound 315] | ≤ 30 | ≤ 1000
CCn1c(=O)c2cnc(Nc3ccc(N4CCN(C)CC4)c(C)c3)nc2n1-c1cc(F)c(=O)n(C(C)C)c1 [Compound 316] | ≤ 30 | ≤ 1000
CCn1c(=O)c2cnc(Nc3ccc(C4CCN(C)CC4)c(C)c3)nc2n1-c1cc(F)c(=O)n(C(C)C)c1 [Compound 317] | ≤ 30 | ≤ 1000
CCn1c(=O)c2cnc(Nc3ccc4c(c3)CN(C)CC43CC3)nc2n1-c1cc(F)c(=O)n(C(C)C)c1 [Compound 318] | ≤ 30 | ≤ 1000
CC(C)n1cc(-n2c3nc(Nc4ccc(N5CCN(C)CC5)cc4)ncc3c(=O)n2C(C)C)cc(F)c1=O [Compound 319] | ≤ 30 | ≤ 1000
Cc1cc(Nc2ncc3c(=O)n(C(C)C)n(-c4cc(F)c(=O)n(C(C)C)c4)c3n2)ccc1N1CCN(C)CC1 [Compound 320] | ≤ 30 | ≤ 1000
Cc1cc(Nc2ncc3c(=O)n(C(C)C)n(-c4cc(F)c(=O)n(C(C)C)c4)c3n2)ccc1C1CCN(C)CC1 [Compound 321] | ≤ 30 | ≤ 1000
